The text below walks through data of patent US12668803B2, “Glypican-3-specific modified aptamer and use thereof” (APTAMER SCIENCES INC., priority 2019, dated 2026).

The series relates to Huh 7 cells. Briefly: Cell binding analysis of Cy5-labeled aptamers (FACS). The series is classed as cell-based. Conditions: three vs five gemcitabines bound, method of Example 2-1, FIG. 19. As for the experimental part: The 12-10 aptamer and 5 aptamer libraries prepared by truncating the 12-10 aptamer at various lengths [12-10 (40-mer), 12-12 (35-mer), 12-11 (29-mer), 12-13 (24-mer), 12-14 (23-mer), 12-15 (18-mer)] were subjected to cell binding analysis. Each aptamer sequence was labeled with Cy5 at the 5′ end thereof according to the method of Example 1-1. Huh 7 cells (ATCC, Rockville, MD, USA) were seeded at a density of 2×10^6/mL in a 100 mm^2 culture plate, and cultured using a DMEM medium (Gibco, Grand Island, NY, USA) containing 10% FBS (Gibco, Grand Island, NY, USA) and 1% antibiotics (penicillin/streptomycin) under conditions of 5% CO2 and 37° C. 5 μM of the aptamer stock was mixed with 5×SB18 buffer to prepare the aptamer at a concentration of 4 μM, and heated at 95° C. for 5 min, and then cooled at room temperature for 15 min or more. 4 μM of the aptamer was diluted with KRPH buffer (20 mM HEPES, 5 mM KH2PO4, 1 mM MgSO4, 1 mM CaCl2, 136 mM NaCl, 4.7 mM KCl, pH 7.4) at a concentration of 25 nM. The culture medium was removed from the cultured cells, and 4 mL of phosphate-buffered saline (PBS) was added thereto, followed by washing, and then 4 mL of PBS was removed. 4 mL of cold PBS or warm PBS was added, and cells were scraped using a scraper, and collected in tubes, followed by pipetting. The cells were divided and added to fluorescence-activated cell sorting (FAC) tubes according to the number of samples, followed by centrifugation at 4° C. and 2000 rpm for 4 min. After removing the supernatant, each 500 μL of 25 nM aptamer and control (31-08 (40-mer) aptamer) were added to […] of KRPH buffer, followed by pipetting. The tube was covered with foil to block the light, followed by incubation at 4° C. for 30 min. After incubation, centrifugation was performed at 4° C. and 2000 rpm for 4 min, and the supernatant was removed. 2 mL of cold 1×PBS was added, washed, centrifuged at 4° C. and 2000 rpm for 4 min, and the supernatant was removed. This process was repeated three times. […] Cy5 was measured at […]. […]

On to “Combi 5 G(3) (DNA GNGAANGCGNNGAANNANWYSSSNNCAGNCANCAC; gemcitabines, 2'-OMe, 2'-F, BzdU, 3' idT; Combi 5 G(3); (1)..(1) G is 2-O-Methoxy-DNA.; (2)..(2) n is BzdU.; (3)..(3) G is 2-O-Methoxy-DNA.; (4)..(4) A is 2-Fluorine-DNA.; (5)..(5) A is 2-Fluorine-DNA.; (6)..(6) n is BzdU.; (10)..(10) n is BzdU.; (11)..(11) n is BzdU.; (12)..(12) G is 2-Fluorine-DNA.; (13)..(13) A is 2-Fluorine-DNA.; (14)..(14) A is 2-O-Methoxy-DNA.; (15)..(15) n is BzdU.; (16)..(16) n is BzdU.; (17)..(17) A is 2-O-Methox)”, for which the cell binding ability result is on record as “excellent cell binding ability”.
